Like-named read-outs stand apart in the source and are kept apart here.
Assays:
[1] = system: Bladder RT4; assay: CellTiter Glo cell viability assay; assay type: cell-based; details: Homo sapiens
Protocol: (§1) 1.7*10^3 cells/well were seeded in quadruplicates in 96-well plate after plating. Drugs were added at 5 μM and 2-fold dilutions over 18 concentrations (0.000038146-5 […] range) to generate a dose-response curve. Cell growth was assessed on day 1, 3 and 5 after drug treatments using the CellTiter Glo Luminescence Cell Viability Assay (Promega) according to manufacturer's protocol. Thermo Scientific Varioskan LUX Multimode Microplate instrument was used for plate reading. Data are expressed as mean luminescence (arbitrary units) ±S.D.
(§2) Cell Viability Assays were employed to determine the concentration of Compound 1 (KYN-001) and analogues where the response is reduced by half. For each treatment of cancer cells, 1, 2, 5, 10 and 20 μM solutions of compounds were applied. GraphPad Prism 7 software was used to fit dose response curves. Relative Luminescence Units were plotted against the log values of the doses used and the nonlinear regression model was used for data analysis.
(§3) The protocol for cell proliferation was optimized for Compound 8 (KYN-119) to enable a more accurate assessment of its low IC50 value. In this protocol, 18 dosages (2 fold dilutions ranging from 0.000038146 to 5 μM) were applied to cells seeded in 96-well plates, and Luminescence was measured after 1, 3 and 5 days upon treatments.

[2] = system: Kidney 769-P; assay: CellTiter Glo cell viability assay; assay type: cell-based; details: Homo sapiens
Protocol: as §1, §2, §3

[3] = system: Rhabomyosarcoma A-204; assay: CellTiter Glo cell viability assay; assay type: cell-based; details: Homo sapiens
Protocol: as §1, §2, §3

[4] = system: IL-4 secretion from human CD4-positive T-cells stimulated with antiCD2/antiCD3/antiCD28-coated beads; assay: T-cell IL-4 assay (assay number 1297, 1298); assay type: cell-based; details: for Emax: read-out: maximum efficacy, IL-4 secretion; for Max Eff.: IL-4 (1298): highest effect as percentage of control maximum effect
Protocol: Inhibition of IL-4 and IL-2 secretion from human CD4-positive T-cells stimulated with antiCD2/antiCD3/antiCD28-coated beads. LEO Pharma Open Innovation assay number 1297, 1298, 1299.
The inflammatory skin disease atopic dermatitis is characterized by the T-cell cytokines IL-4, IL-13 and IL-22. In the present assay, human T-cells are stimulated with beads coated with antibodies against CD2, CD3 and CD28 to activate the T-cell receptor.
Then the level of secreted of IL-4 is measured in the culture supernatant using electrochemiluminescence (MSD kits, Meso Scale Discovery), IL-2 is measured by proximity homogenous time-resolved fluorescence (HTRF) and the amount of living cells is measured by addition of resazurin (PrestoBlue®) to allow identifying compounds that inhibit T-cell proliferation or viability.
• Peripheral blood mononuclear cells (PBMC) are isolated from fresh human buffy coats by centrifugation on Lymphoprep® following instructions from Sebmate™ (Stemcell). • The cells are resuspended in 30 ml of PBS+2% Serum and counted. • CD4 positive T-cells are isolated from freshly isolated PBMC using EasySep™ humane CD4+ T-cell Isolation Kit (Catalog #17952) and following the manufacturer's protocol. • Cells are spun down and resuspended in freezing medium (X-vivo 15+10% FBS+5% DMSO) • Cells are frozen in aliquots of 3×10^7 cells/vial matching one 384 plate. Cells are place in Coolcell box and place in −80° C. freezer for one day then transferred to the −150° C. freezer in a prechilled box.
• Prepare assay medium: 500 ml X-Vivo 15+5 ml Glutamax (2 mM final)+5 ml pen/strep (100 U/ml final). • Add 5 μL medium to the wells of a 384 well plate (Greiner cat. No 788986). • CD4+ Cells: Thaw frozen cells from −150° C. freezer in 37° C. bath, and pipette the cells into 10 ml medium. Spin 10 min @170 g. • Resuspend pellet in 3.5 ml per 2.5×10^7 cells and add 10 μL per well to the plate (40000 cells/well) • Test compounds: Prepare compound-containing source plate, i.e. titrations in DMSO to be transferred to the assay plate. • Add 25 nL compounds and controls from the source plate to the assay plate (with cells). • Beads (T Cell Activation/Expansion Kit-human, Miltenyi Biotech, cat. no. 130-091-441): Coat beads with antibodies according to the kit procedure. • Add 10 μL beads to each well except for the negative controls. One bead per cell. Add 10 μL medium to the negative controls. • Incubate plates at 37° C., 5% CO2/95% air for 2 days.
• Remove plates from incubation and equilibrate to room temperature for 30 minutes. • IL-4 concentration in 10 μL supernatant is measured using an MSD IL-4 384-plate kit (Custom made) according to manufacturer protocol. • IL-2 concentrations in the supernatant is measured by an IL-2 HTRF kit, CisBio, cat. No 62HIL02PEH. • Add 4 μL medium to white proxi 384-well plates • Add 1 μL supernatant. • Add 4 μL mHTRF mix (each diluted 1:300 in ⅔ reconstitution buffer and ⅓ assay medium). • Spin the plates for 1 minute at 170 g • Seal and incubate overnight and read fluorescence in a plate reader • The amount of viable cells is measured by PrestoBlue® reagent • Add 15 μL diluted PrestoBlue® reagent (resazurin) corresponding to 2.5 μL Prestoblue/well to the assay plate. • Incubate overnight at 37° C./5% CO2. The fluorescence in the wells is measured (Ex615/Em 535).
IL-4 concentration in the supernatants is measured using electrochemiluminescence (MSD kits, Meso Scale Discovery). IL-2 concentration in the supernatants is measured using homogeneous time-resolved fluorescence resonance (TR-FRET). The assay is quantified by measuring fluorescence at 665 nm (proportional to IL-2 concentration) and 620 nm (control). A ratio 665/620*1000 is calculated.
The capacity of the test compound to inhibit IL-4 and IL-2 release is normalized to the signal in the negative control wells with un-stimulated T-cells.

[5] = system: Kidney ACHN; assay: CellTiter Glo cell viability assay; assay type: cell-based; details: Homo sapiens; ACHN/CRL-1611; 11 dilutions 3-0.00001 μM
[6] = system: GBM patient sample BNA99; assay: Ex vivo GBM 3D spheroid drug response (CellTiter-Glo 3D); assay type: cell-based, human; details: 3D spheroids, 4 days post drug treatment
Source text: (§4) This project involves an ex vivo drug response screen for 3 ROKiT Pharma test agents and Temozolomide in 3 previously dissociated and cryopreserved GBM samples.
(§5) • 2.1 Three previously processed GBM patient samples were chosen to be used in this study.

[7] = system: GBM patient sample BNB18; assay: as above; assay type: cell-based, human; details: 3D spheroids, 4 days post drug treatment
Source text: as §4, §5

[8] = RT4/HTB-2, 11 dilutions 3-0.00001 μM, read-out: IC50
[9] = 769-P/CRL-1933, 11 dilutions 3-0.00001 μM, read-out: IC50
[10] = A204, A-204/HTB-82, 11 dilutions 3-0.00001 μM, read-out: IC50
[11] = Homo sapiens, CD4 positive, read-out: EC50, inhibition of IL-4 secretion
[12] = inhibition of IL-4 secretion, human CD4-positive T-cells, read-out: Abs EC50: IL-4 (1298)

Row | SMILES | IC50 [1, 8] [nM] | IC50 [2, 9] [nM] | IC50 [3, 10] [nM] | effect on IL-4 release, in words [4] | EC50 [4, 11] [nM] | Emax ([4]; Homo sapiens, CD4 positive) [%] | Max Eff.: IL-4 (1298) [4] [%] | EC50 [4, 12] [nM] | IC50 [5] [nM] | IC50 [6] [nM] | IC50 ([6]; Homo sapiens, 96 h) [nM] | IC50 [7] [nM] | IC50 ([7]; Homo sapiens, 96 h) [nM] | IC50 ([1]; 72 h, 3 Days of treatment, 18 2-fold dilutions 5-0.00003 μM, read-out: Average IC50) [nM] | IC50 ([2]; 769-P, 72 h, 3 Days of treatment, 18 2-fold dilutions 5-0.00003 μM, read-out: Average IC50) [nM] | IC50 ([3]; A204, 72 h, 3 Days of treatment, 18 2-fold dilutions 5-0.00003 μM, read-out: Average IC50) [nM]
1 | CCOc1cc(O)cc(/C=C/c2ccc(NC=O)c(OC)c2)c1CC=C(C)C [Compound 28, (E)-N-(4-(3-Ethoxy-5-hydroxy-2-(3-methylbut-2-en-1-yl)styryl)-2-methoxyphenyl)formamide] | 463 | 40.1 | 25.3 | medium potency effect | 278 | 80 | 80 | 278 | 18.8 |  |  |  |  |  |  | 
2 | CCOc1cc(O)cc(/C=C/c2ccc(NC(=O)C(=O)O)c(OC)c2)c1CC=C(C)C [Compound 35, (E)-2-((4-(3-Ethoxy-5-hydroxy-2-(3-methylbut-2-en-1-yl)styryl)-2-methoxyphenyl)amino)-2-oxoacetic acid] |  |  |  |  |  |  | 11 | 5000 |  |  |  |  |  |  |  | 
3 | COc1cc(/C=C/c2cc(O)cc(OC)c2CC=C(C)C)ccc1NC=O [Compound 27, (E)-N-(4-(5-hydroxy-3-methoxy-2-(3-methylbut-2-en-1-yl)styryl)-2-methoxyphenyl)formamide] | 453 | 110 | 52.4 |  | 507 | 79 | 79 | 507 | 26.7 | 8870 | 8860 | 634 | 630 |  |  | 
4 | CCOc1cc(O)cc(/C=C/c2ccc(O)c(O)c2)c1CC=C(C)C [Compound 20, (E)-4-(3-Ethoxy-5-hydroxy-2-(3-methylbut-2-en-1-yl)styryl)benzene-1,2-diol] | 2010 | 174 | 131 |  |  |  | 54 | 5000 | 83.4 |  | 19100 |  | 4560 |  |  | 
5 | COc1cc(/C=C/c2cc(O)cc(OC)c2CC=C(C)C)ccc1O [Compound 1, (E)-3-(4-hydroxy-3-methoxystyryl)-5-methoxy-4-(3-methylbut-2-en-1-yl)phenol] | 1380 | 363 | 199 |  |  |  | 70 | 2930 | 241 |  | 15000 |  | 1330 |  |  | 
6 | COc1cc(/C=C/c2cc(O)cc(OC)c2CC=C(C)C)ccc1NC(=O)CN [Compound 31, (E)-2-amino-N-(4-(5-hydroxy-3-methoxy-2-(3-methylbut-2-en-1-yl)styryl)-2-methoxyphenyl)acetamide] |  |  |  |  |  |  | 29 | 5000 |  |  |  |  |  |  |  | 
7 | CCOc1cc(O)cc(/C=C/c2ccc(O)c(OC)c2)c1CC=C(C)C [Compound 8, (E)-3-Ethoxy-5-(4-hydroxy-3-methoxystyryl)-4-(3-methylbut-2-en-1-yl)phenol] | 968 | 109 | 67.8 |  |  |  | 82 | 503 | 75.7 |  |  |  |  | 1670 | 33.7 | 30.7

Source: patent US20260209152A1, “Substituted Hydroxystilbene Compounds and Derivatives, Synthesis and Uses Thereof” (Kynan Duke IP, LLC, priority 2019, published 2026)
